The record followed here is patent publication US11066416B2, “Rapafucin derivative compounds and methods of use thereof” (The Johns Hopkins University, priority 2016, dated 2021).

The test system of the first assay is nucleoside uptake (3H-Thymidine). The assay is described as follows: Nucleoside uptake assay (uptake) using 3H-Thymidine, IC50, cell line as indicated in each table (none given in Table 8). The assay is classed as cell-based. As to conditions: 3H-Thymidine uptake; cell line not given. On the procedure:
(§1) Nucleoside Uptake Assay (uptake). Nuceloside uptake assays were performed with using 3H-Thymidine as described in Guo et al. (2018) Nat. Chem. 11:254-63. Specific cell lines are indicated in each assay and cultured in complete growth media. Activity is scored according to the IC50 values relative to DMSO control. “Low” indicates an IC50 greater than 600 nM, “Medium” indicates an IC50 between 300 nM and 600 nM “High” indicates an IC50 less than 300 nM. “Rel.Uptake” refers to uptake activity characterization relative to a single concentration assay. “Low” indicates a response greater than 0.6 times the activity relative to DMSO, “Medium” indicates a response between 0.6 and 0.3 times the activity relative to DMSO, “High” indicates a response less than 0.3 times the activity relative to DMSO.
For `COc1ccc(CC[C@H]2OC(=O)[C@@H]3CCCCN3C(=O)C(=O)C(C)(C)COC(=O)/C=C/CCN(C)C(=O)[C@H](C(C)C)N(C)C(=O)[C@@H]3CCCN3C(=O)[C@@H](Cc3ccccc3)N(C)C(=O)[C@H](CC(C)C)NC(=O)CCC(=O)Nc3cccc2c3)cc1OC` [Compound 1608], the midpoint of inhibition, the IC50, lay at 54.1 nM.
Same read-out and setting: then `COc1ccc(CC[C@H]2OC(=O)[C@@H]3CCCCN3C(=O)C(=O)C(C)(C)COC(=O)/C=C/CCN(C)C(=O)[C@H](C(C)C)N(C)C(=O)[C@@H]3CCCN3C(=O)[C@@H](Cc3ccccc3)N(C)C(=O)CNC(=O)COc3cccc2c3)cc1OC` [Compound 1611], with 48.9 nM.
The same measure, in the same setting: for `COc1ccc(CC[C@H]2OC(=O)[C@@H]3CCCCN3C(=O)C(=O)C(C)(C)COC(=O)/C=C/CCN(C)C(=O)[C@H](C(C)C)N(C)C(=O)[C@@H]3CCCN3C(=O)[C@@H](Cc3ccccc3)N(C)C(=O)[C@H](c3ccccc3)NC(=O)CCC(=O)Nc3cccc2c3)cc1OC` [Compound 1610] the value was 16.5 nM.
The same measure, in the same setting: then `COc1ccc(CC[C@H]2OC(=O)[C@@H]3CCCCN3C(=O)C(=O)C(C)(C)COC(=O)/C=C/CCN(C)C(=O)[C@H](C(C)C)N(C)C(=O)[C@@H]3CCCN3C(=O)[C@@H](Cc3ccccc3)N(C)C(=O)[C@H](C)NC(=O)COc3cccc2c3)cc1OC` [Compound 1612], with 33.5 nM; and `COc1ccc(CC[C@H]2OC(=O)[C@@H]3CCCCN3C(=O)C(=O)C(C)(C)COC(=O)/C=C/CCN(C)C(=O)[C@H](C(C)C)N(C)C(=O)[C@@H]3CCCN3C(=O)[C@@H](Cc3ccccc3)N(C)C(=O)CNC(=O)CCC(=O)Nc3cccc2c3)cc1OC` [Compound 1605], with 27.9 nM; and `COc1ccc(CC[C@H]2OC(=O)[C@@H]3CCCCN3C(=O)C(=O)C(C)(C)COC(=O)C=CCCN(C)C(=O)[C@H](CC(C)C)N(C)C(=O)[C@@H]3CCCN3C(=O)[C@@H](Cc3ccccc3)N(C)C(=O)[C@H](C)NC(=O)CCC(=O)Nc3cccc2c3)cc1OC` [Compound 1624], with 31.4 nM.
In the case of `CCC[C@@H]1NC(=O)COc2cccc(c2)[C@@H](CCc2ccc(OC)c(OC)c2)OC(=O)[C@@H]2CCCCN2C(=O)C(=O)C(C)(C)COC(=O)/C=C/CCN(C)C(=O)[C@H]([C@@H](C)CC)N(C)C(=O)[C@@H]2CCCN2C(=O)[C@@H](Cc2ccccc2)N(C)C1=O` [Compound 1618], the IC50 (usually the concentration at which inhibition is half-maximal) came out at 173 nM.
For `COc1ccc(CC[C@H]2OC(=O)[C@@H]3CCCCN3C(=O)C(=O)C(C)(C)COC(=O)/C=C/CCN(C)C(=O)[C@H](C(C)C)N(C)C(=O)[C@@H]3CCCN3C(=O)[C@@H](Cc3ccccc3)N(C)C(=O)[C@H](Cc3ccccc3)NC(=O)CCC(=O)Nc3cccc2c3)cc1OC` [Compound 1609], inhibition was half-maximal at 55 nM (IC50).
The same measure, in the same setting: then `COc1ccc(CC[C@H]2OC(=O)[C@@H]3CCCCN3C(=O)C(=O)C(C)(C)COC(=O)C=CCCN(C)C(=O)C3(CCCCC3)NC(=O)[C@@H]3CCCN3C(=O)[C@@H](Cc3ccccc3)N(C)C(=O)CNC(=O)COc3cccc2c3)cc1OC` [Compound 1627], with 262 nM; and `CC[C@H](C)[C@H]1C(=O)N(C)CC/C=C/C(=O)OCC(C)(C)C(=O)C(=O)N2CCCC[C@H]2C(=O)O[C@H](CCc2ccc(OC)c(OC)c2)c2cccc(c2)OCC(=O)N[C@@H](C)C(=O)N(C)[C@H](Cc2ccccc2)C(=O)N2CCC[C@H]2C(=O)N1C` [Compound 1617], with 34.1 nM.
Still for that read-out and setting: for `CCC[C@@H]1NC(=O)CCC(=O)Nc2cccc(c2)[C@@H](CCc2ccc(OC)c(OC)c2)OC(=O)[C@@H]2CCCCN2C(=O)C(=O)C(C)(C)COC(=O)/C=C/CCN(C)C(=O)[C@H](C(C)C)N(C)C(=O)[C@@H]2CCCN2C(=O)[C@@H](Cc2ccccc2)N(C)C1=O` [Compound 1607] the value was 18 nM.
`CCCC[C@H]1C(=O)N(C)CC/C=C/C(=O)OCC(C)(C)C(=O)C(=O)N2CCCC[C@H]2C(=O)O[C@H](CCc2ccc(OC)c(OC)c2)c2cccc(c2)OCC(=O)NCC(=O)N(C)[C@H](Cc2ccccc2)C(=O)N2CCC[C@H]2C(=O)N1C` [Compound 1620] gave a 50% inhibitory concentration (IC50) of 13.9 nM.
Same read-out and setting: then `COc1ccc(CC[C@H]2OC(=O)[C@@H]3CCCCN3C(=O)C(=O)C(C)(C)COC(=O)C=CCCN(C)C(=O)[C@H](CC(C)C)N(C)C(=O)[C@@H]3CCCN3C(=O)[C@@H](Cc3ccccc3)N(C)C(=O)[C@H](C)NC(=O)COc3cccc2c3)cc1OC` [Compound 1623], with 10.5 nM; and `COc1ccc(CC[C@H]2OC(=O)[C@@H]3CCCCN3C(=O)C(=O)C(C)(C)COC(=O)/C=C/CCN(C)C(=O)[C@H](C(C)C)N(C)C(=O)[C@@H]3CCCN3C(=O)[C@@H](Cc3ccccc3)N(C)C(=O)[C@H](C)NC(=O)CCC(=O)Nc3cccc2c3)cc1OC` [Compound 1606], with 23.7 nM.
In the case of `CCC[C@@H]1NC(=O)CCC(=O)Nc2cccc(c2)[C@@H](CCc2ccc(OC)c(OC)c2)OC(=O)[C@@H]2CCCCN2C(=O)C(=O)C(C)(C)COC(=O)/C=C/CCN(C)C(=O)[C@H]([C@@H](C)CC)N(C)C(=O)[C@@H]2CCCN2C(=O)[C@@H](Cc2ccccc2)N(C)C1=O` [Compound 1615], the IC50 stood at 12.2 nM.
`CC[C@H](C)[C@H]1C(=O)N(C)CC/C=C/C(=O)OCC(C)(C)C(=O)C(=O)N2CCCC[C@H]2C(=O)O[C@H](CCc2ccc(OC)c(OC)c2)c2cccc(c2)NC(=O)CCC(=O)N[C@@H](c2ccccc2)C(=O)N(C)[C@H](Cc2ccccc2)C(=O)N2CCC[C@H]2C(=O)N1C` [Compound 1616] showed an IC50 of 100 nM.
On the same count and under the same terms, for `COc1ccc(CC[C@H]2OC(=O)[C@@H]3CCCCN3C(=O)C(=O)C(C)(C)COC(=O)/C=C/CCN(C)C(=O)[C@H](C)N(C)C(=O)[C@@H]3CCCN3C(=O)[C@@H](Cc3ccccc3)N(C)C(=O)[C@H](C)NC(=O)COc3cccc2c3)cc1OC` [Compound 1619] the value was 66.7 nM; for `COc1ccc(CC[C@H]2OC(=O)[C@@H]3CCCCN3C(=O)C(=O)C(C)(C)COC(=O)C=CCCN(C)C(=O)[C@H](CC(C)C)N(C)C(=O)[C@@H]3CCCN3C(=O)[C@@H](Cc3ccccc3)N(C)C(=O)CNC(=O)COc3cccc2c3)cc1OC` [Compound 1622], 28.5 nM.
On the same count and under the same terms, then `CCCC[C@H]1C(=O)N(C)CCC=CC(=O)OCC(C)(C)C(=O)C(=O)N2CCCC[C@H]2C(=O)O[C@H](CCc2ccc(OC)c(OC)c2)c2cccc(c2)OCC(=O)N[C@@H](C)C(=O)N(C)[C@H](Cc2ccccc2)C(=O)N2CCC[C@H]2C(=O)N1C` [Compound 1621], with 9.76 nM.
The same measure, in the same setting: then `COc1ccc(CC[C@H]2OC(=O)[C@@H]3CCCCN3C(=O)C(=O)C(C)(C)COC(=O)C=CCCN(C)C(=O)[C@@H](C)N(C)C(=O)[C@@H]3CCCN3C(=O)[C@@H](Cc3ccccc3)N(C)C(=O)CNC(=O)COc3cccc2c3)cc1OC` [Compound 1626], with 155 nM; and `CCC[C@H]1C(=O)N(C)CCC=CC(=O)OCC(C)(C)C(=O)C(=O)N2CCCC[C@H]2C(=O)O[C@H](CCc2ccc(OC)c(OC)c2)c2cccc(c2)OCC(=O)NCC(=O)N(C)[C@H](Cc2ccccc2)C(=O)N2CCC[C@H]2C(=O)N1C` [Compound 1625], with 42.3 nM.

The test system of a further assay is H929. The assay is described as follows: Cell proliferation assay (Prolif.), H929. The assay is classed as cell-based. To be noted: H929 cells; Table 11. The protocol: Cell Proliferation Assay (Prolif.) Guo et al. (2018) Nat. Chem. 11:254-63. Specific cell lines are indicated in each assay and cultured in complete growth media. Activity is scored according to the IC50 values relative to DMSO control. “Low” indicates an IC50 greater than 600 nM, “Medium” indicates an IC50 between 300 nM and 600 nM “High” indicates an IC50 less than 300 nM. “Rel.Uptake” refers to uptake activity characterization relative to a single concentration assay. “Low” indicates a response greater than 0.6 times the activity relative to DMSO, “Medium” indicates a response between 0.6 and 0.3 times the activity relative to DMSO, “High” indicates a response less than 0.3 times the activity relative to DMSO.
`COc1cc(F)c(CC[C@H]2OC(=O)[C@@H]3CCCCN3C(=O)C(=O)C(C)(C)COC(=O)C=CCCN(C)C(=O)[C@@H](Cc3ccccc3)NC(=O)CN(C)C(=O)[C@@H](Cc3ccccc3)NC(=O)[C@H](Cc3ccc(O)cc3)N(C)C(=O)COc3cccc2c3)cc1OC` [Compound 1570]: the “Prolif, H929” value is recorded as “medium”.

A further assay deals with nucleoside uptake (3H-Thymidine). The assay is described as follows: Rel.Uptake: nucleoside uptake, single concentration assay, cell line as indicated in each table. The assay is classed as cell-based. As to conditions: 293T, nucleoside uptake, response relative to DMSO. On the procedure:
as §1
As to `COc1cc(F)c(CC[C@H]2OC(=O)[C@@H]3CCCCN3C(=O)C(=O)C(C)(C)COC(=O)C=CCCN(C)C(=O)[C@@H](Cc3ccccc3)NC(=O)CN(C)C(=O)[C@@H](Cc3ccccc3)NC(=O)[C@H](Cc3ccc(O)cc3)N(C)C(=O)COc3cccc2c3)cc1OC` [Compound 1570], the “Rel. Uptake, 293T” value is listed as “medium”.
